According to PMC3994669 (Cancer cell, 2014):
Read-outs that look alike come from different tables or passages of the source. *1 amine or outer side, *2 acyl side, *3 side chain or, on linkers, in order; H or OH if unused. Where a SMILES comes first, the peptide text is derived from it. Bridges are numbered along the chain shown (N, C = ends). Roman numbers before positions name the chains, in order. [ ]: non-standard residue; d: D form. Actinocin(9to1) = Cc1c2oc3c(C)ccc(C(=O)[*:1])c3nc-2c(C(=O)[*:2])c(N)c1=O; NMeV = CN[C@H](C(=O)O)C(C)C; Sar = CNCC(=O)O

Columns and labels:
Trp53-null neurospheres = assay: Dose-response proliferation assay on control Trp53-null neurospheres; type: cell-based, mouse; conditions: for EC50: Mus musculus, 72 h, read-out: EC50 Trp53-null; for efficacy against Trp53-null: 72 hr treatment
[1] = system: Myc1 mouse G3 MB neurospheres; assay: Dose-response proliferation assay; type: cell-based; conditions: for EC50: Mus musculus, 72 h, read-out: EC50 Myc1; for efficacy against Myc1: 72 hr treatment
BJ = assay: Dose-response proliferation assay on BJ control fibroblasts; type: cell-based; conditions: Homo sapiens, read-out: EC50 BJ
HepG2 = assay: Dose-response proliferation assay on HepG2 control cells; type: cell-based; conditions: Homo sapiens, HepG2, read-out: EC50 HepG2
H3K27me3 = H3K27me3 immunoblotting of Myc1 cell lysates; type: cell-based, mouse; conditions: Myc1, 72 hr; 0.5 μM decitabine, 40 nM pemetrexed
Myc1 neurospheres = assay: In vitro wash-out experiments on Myc1; type: cell-based; conditions: Mus musculus
[2] = system: four additional mouse G3 MB lines; assay: Dose-response on four additional mouse G3 MB lines; type: cell-based; conditions: four independently derived mouse G3 MB lines
[3] = system: TB-12-5950 G3 MB PDX neurospheres; assay: Cell viability of G3 MB PDX TB-12-5950 neurospheres; type: cell-based; conditions: Homo sapiens, 72 h, read-out: EC50 TB-12-5950
Myc2 mouse G3 MB = assay: Survival of mice with Myc2 G3 MB implants; conditions: treatment at days 4 and 11; vehicle 11 days
[4] = type: in vivo; conditions: murine plasma, single IV injection pemetrexed 200 mg/kg, gemcitabine 60 mg/kg
[5] = system: OA-2012-1 G3 MB PDX neurospheres; assay: Cell viability of G3 MB PDX OA-2012-1 neurospheres; type: cell-based; conditions: Homo sapiens, 72 h, read-out: EC50 OA-2012-1
SHH MB-derived line = assay: Dose-response on SHH MB-derived line; type: cell-based, mouse
[6] = system: human neural stem cells H9; assay: Cell viability of human neural stem cells H9; type: cell-based; conditions: H9, 72 h, read-out: EC50 H9 cells
Myc1 mouse G3 MB = assay: Survival of mice with cortical Myc1 G3 MB implants; type: in vivo; conditions: two doses of gemcitabine 60 mg/kg at days 2 and 9, vs vehicle
mouse G3 MB tumor cells = assay: Cell death; type: cell-based
[7] = mouse, in vivo
[8] = read-out: EC50 wash-out, 1 hr drug exposure, read 72 hr after
[9] = read-out: EC50 wash-out, 10 hr drug exposure, read 72 hr after
[10] = read-out: EC50 wash-out, 24 hr drug exposure, read 72 hr after

SMILES: COc1cc(NS(C)(=O)=O)ccc1Nc1c2ccccc2nc2ccccc12 [Amsacrine]
- EC50 (Trp53-null neurospheres): 550 nM
- EC50 [1]: 160 nM
- EC50 (BJ): 13000 nM
- EC50 (HepG2): 11000 nM

SMILES: N=c1ccn2c(n1)O[C@H]1[C@H](O)[C@@H](CO)O[C@H]12 [Ancitabine]
- EC50 (Trp53-null neurospheres): 550 nM
- EC50 [1]: 31 nM

SMILES: CC(C)C[C@H](NC(=O)[C@H](Cc1ccccc1)NC(=O)c1cnccn1)B(O)O [Bortezomib]
- EC50 (Trp53-null neurospheres): 2.7 nM
- EC50 [1]: 6.3 nM
- EC50 (BJ): 23 nM
- EC50 (HepG2): 26 nM

SMILES: COCc1c(C(C)C)nc(C(C)C)c(/C=C/[C@@H](O)C[C@@H](O)CC(=O)O)c1-c1ccc(F)cc1 [Cerivastatin]
- EC50 (Trp53-null neurospheres): 2500 nM
- EC50 [1]: 770 nM
- EC50 (HepG2): 920 nM

SMILES: Nc1nc(Cl)nc2c1ncn2[C@H]1C[C@H](O)[C@@H](CO)O1 [Cladrabine]
- EC50 (Trp53-null neurospheres): 250 nM
- EC50 [1]: 4.3 nM
- EC50 (BJ): 1400 nM
- EC50 (HepG2): 3300 nM

SMILES: Nc1nc(Cl)nc2c1ncn2[C@@H]1O[C@H](CO)[C@@H](O)[C@@H]1F [Clofarabine]
- EC50 (Trp53-null neurospheres): 340 nM
- EC50 [1]: 150 nM

SMILES: CC1(C)N=C(N)N=C(N)N1c1ccc(Cl)cc1 [Cycloguanil]
- EC50 (Trp53-null neurospheres): 180 nM
- EC50 [1]: 110 nM

SMILES: Nc1ccn([C@@H]2O[C@H](CO)[C@@H](O)[C@@H]2O)c(=O)n1 [Cytarabine]
- EC50 (Trp53-null neurospheres): 200 nM
- EC50 [1]: 83 nM
- EC50 (HepG2): 78 nM

SMILES: Cc1c2oc3c(C)ccc(C(=O)N[C@@H]4C(=O)N[C@H](C(C)C)C(=O)N5CCC[C@H]5C(=O)N(C)CC(=O)N(C)[C@@H](C(C)C)C(=O)O[C@@H]4C)c3nc-2c(C(=O)N[C@@H]2C(=O)N[C@H](C(C)C)C(=O)N3CCC[C@H]3C(=O)N(C)CC(=O)N(C)[C@@H](C(C)C)C(=O)O[C@@H]2C)c(N)c1=O [Dactinomycin] (I: T[dV]P[Sar][NMeV] / II: T[dV]P[Sar][NMeV]; ester I:1-I:C, II:1-II:C; linker I:N-II:N via Actinocin(9to1))
- EC50 (Trp53-null neurospheres): 2.4 nM
- EC50 [1]: 0.9 nM
- EC50 (HepG2): 8.4 nM

SMILES: COc1cccc2c1C(=O)c1c(O)c3c(c(O)c1C2=O)C[C@@](O)(C(C)=O)C[C@@H]3O[C@H]1C[C@H](N)[C@H](O)[C@H](C)O1 [Daunorubicin]
- EC50 (Trp53-null neurospheres): 36 nM
- EC50 [1]: 7.5 nM
- EC50 (BJ): 100 nM
- EC50 (HepG2): 1700 nM

SMILES: Nc1ncn([C@H]2C[C@H](O)[C@@H](CO)O2)c(=O)n1 [Decitabine]
- efficacy against Trp53-null (Trp53-null neurospheres): ≤ 35%
- EC50 (Trp53-null neurospheres): 32 nM
- H3K27me3 levels (H3K27me3): significantly decreased
- EC50 (Myc1 neurospheres; [8]): ~2400 nM
- EC50 (Myc1 neurospheres; [9]): ~920 nM
- EC50 (Myc1 neurospheres; [10]): ~500 nM
- potency and efficacy compared to Myc1 [2]: comparable potency and efficacy
- efficacy against Myc1 [1]: 100%
- EC50 [1]: 1300 nM

SMILES: COc1cccc2c1C(=O)c1c(O)c3c(c(O)c1C2=O)C[C@@](O)(C(=O)CO)C[C@@H]3O[C@H]1C[C@H](N)[C@H](O)[C@H](C)O1 [Doxorubicin]
- EC50 (Trp53-null neurospheres): 110 nM
- EC50 [1]: 28 nM
- EC50 (BJ): 140 nM
- EC50 (HepG2): 580 nM

SMILES: COc1cc([C@@H]2c3cc4c(cc3[C@@H](O[C@@H]3O[C@@H]5CO[C@@H](C)O[C@H]5[C@H](O)[C@H]3O)[C@H]3COC(=O)[C@H]23)OCO4)cc(OC)c1O [Etoposide]
- EC50 (Trp53-null neurospheres): 46 nM
- EC50 [1]: 240 nM

SMILES: O=c1[nH]c(=O)n([C@H]2C[C@H](O)[C@@H](CO)O2)cc1F [Floxuridine]
- EC50 (Trp53-null neurospheres): 0.1 nM
- EC50 [1]: 1.6 nM

SMILES: O=c1[nH]cc(F)c(=O)[nH]1 [Fluorouracil]
- EC50 (Trp53-null neurospheres): 220 nM
- EC50 [1]: 360 nM

SMILES: CC(C)n1c(/C=C/C(O)CC(O)CC(=O)O)c(-c2ccc(F)cc2)c2ccccc21 (stereo not drawn) [Fluvastatin]
- EC50 [1]: 4500 nM

SMILES: Nc1ccn([C@@H]2O[C@H](CO)[C@@H](O)C2(F)F)c(=O)n1 [Gemcitabine]
- efficacy against Trp53-null (Trp53-null neurospheres): ≤ 63%
- EC50 (Trp53-null neurospheres): 0.32 nM
- EC50 (Myc1 neurospheres; [8]): 44 nM
- EC50 (Myc1 neurospheres; [9]): 13 nM
- EC50 (Myc1 neurospheres; [10]): 3.8 nM
- EC50 [3]: 5.1 nM
- median survival (Myc2 mouse G3 MB): 26 days
- potency and efficacy compared to Myc1 [2]: comparable potency and efficacy
- clearance relative to previously published reports [4]: around 2 fold
- efficacy against Myc1 [1]: 100%
- EC50 [1]: 2.1 nM
- EC50 [5]: 11 nM
- fold less sensitive compared to Myc1 (SHH MB-derived line): greater than 5 fold
- EC50 [6]: 1.5 nM
- increase in median survival (Myc1 mouse G3 MB): 11 days
- histone 2AX (H2AX) foci (mouse G3 MB tumor cells; 1 hr treatment at 5 nM): induced histone 2AX (H2AX) foci
- cell death by Annexin V staining (mouse G3 MB tumor cells; tumor cells in vitro): induced cell death
- tolerability [7]: well tolerated

SMILES: CC[C@H](C)C(=O)O[C@H]1C[C@@H](C)C=C2C=C[C@H](C)[C@H](CC[C@@H]3C[C@@H](O)CC(=O)O3)[C@H]21 [Lovastatin]
- EC50 (Trp53-null neurospheres): 2100 nM
- EC50 [1]: 4000 nM
- EC50 (HepG2): 13000 nM

SMILES: CN(Cc1cnc2nc(N)nc(N)c2n1)c1ccc(C(=O)N[C@@H](CCC(=O)O)C(=O)O)cc1 [Methotrexate]
- EC50 (Trp53-null neurospheres): 150 nM
- EC50 [1]: 5.2 nM

SMILES: COC(=O)Nc1nc2ccc(C(=O)c3cccs3)cc2[nH]1 [Nocodazole]
- EC50 (Trp53-null neurospheres): 94 nM
- EC50 [1]: 110 nM
- EC50 (HepG2): 15 nM

SMILES: O=C(O)C[C@H](O)C[C@H](O)/C=C/c1c(C2CC2)nc2ccccc2c1-c1ccc(F)cc1 [Pitavastatin]
- EC50 [1]: 3500 nM
- EC50 (HepG2): 5000 nM

SMILES: COc1cc([C@@H]2c3cc4c(cc3[C@H](O)[C@H]3COC(=O)[C@H]23)OCO4)cc(OC)c1OC [Podofilox]
- EC50 (Trp53-null neurospheres): 7.4 nM
- EC50 [1]: 6.4 nM
- EC50 (HepG2): 3.9 nM

SMILES: CCc1nc(N)nc(N)c1-c1ccc(Cl)cc1 [Pyrimethamine]
- EC50 (Trp53-null neurospheres): 870 nM
- EC50 [1]: 4900 nM

SMILES: Cc1nc2ccc(CN(C)c3ccc(C(=O)N[C@@H](CCC(=O)O)C(=O)O)s3)cc2c(=O)[nH]1 [Raltitrexed]
- EC50 (Trp53-null neurospheres): 340 nM
- EC50 [1]: 3 nM

SMILES: CC(C)c1nc(N(C)S(C)(=O)=O)nc(-c2ccc(F)cc2)c1/C=C/[C@@H](O)C[C@@H](O)CC(=O)O [Rosuvastatin]
- EC50 [1]: 2600 nM

SMILES: CCC(C)(C)C(=O)O[C@H]1C[C@@H](C)C=C2C=C[C@H](C)[C@H](CC[C@@H]3C[C@@H](O)CC(=O)O3)[C@H]21 [Simvastatin]
- EC50 [1]: 3000 nM
- EC50 (BJ): 5800 nM
- EC50 (HepG2): 9400 nM

SMILES: Nc1nc2nc[nH]c2c(=S)[nH]1 [Thioguanine]
- EC50 (Trp53-null neurospheres): 800 nM
- EC50 [1]: 440 nM
- EC50 (HepG2): 11000 nM

SMILES: CC[C@@]1(O)C(=O)OCc2c1cc1n(c2=O)Cc2cc3c(CN(C)C)c(O)ccc3nc2-1 [Topotecan]
- EC50 (Trp53-null neurospheres): 180 nM
- EC50 [1]: 75 nM
- EC50 (HepG2): 90 nM

SMILES: O=c1[nH]c(=O)n([C@H]2C[C@H](O)[C@@H](CO)O2)cc1C(F)(F)F [Trifluridine]
- EC50 (Trp53-null neurospheres): 2.9 nM
- EC50 [1]: 38 nM

SMILES: COc1cc(NCc2ccc3nc(N)nc(N)c3c2C)cc(OC)c1OC [Trimetrexate]
- EC50 (Trp53-null neurospheres): 4.7 nM
- EC50 [1]: 35 nM

SMILES: CC[C@]1(O)C[C@@H]2CN(CCc3c([nH]c4ccccc34)[C@@](C(=O)OC)(c3cc4c(cc3OC)N(C)[C@H]3[C@@](O)(C(=O)OC)[C@H](OC(C)=O)[C@]5(CC)C=CCN6CC[C@]43[C@@H]65)C2)C1 [Vinblastine]
- EC50 (Trp53-null neurospheres): 15 nM
- EC50 [1]: 12 nM

SMILES: CC[C@]1(O)C[C@H]2CN(CCc3c([nH]c4ccccc34)[C@@](C(=O)OC)(c3cc4c(cc3OC)N(C=O)[C@H]3[C@@](O)(C(=O)OC)[C@H](OC(C)=O)[C@]5(CC)C=CCN6CC[C@]43[C@@H]65)C2)C1 [Vincristine]
- EC50 (Trp53-null neurospheres): 10 nM
- EC50 [1]: 9.4 nM
- toxicity in mice [7]: intolerable toxicity
